Common to all, as to experiment: growth of human tumour cells (NCI), 48 h
The test system of assay [1] is MDA-MB-435.
Assay [2] relates to LOX IMVI.
In assay [3] the test system is M14.
The test system of assay [4] is SNB-19.
Assay [5] has as its system UO-31.
Assay [6] concerns SK-MEL-2.
Assay [7] concerns MDA-MB-231.
For assay [8], the system named is SN12C.
Assay [9] relates to SR.
In assay [10] the test system is K562.
In assay [11] the test system is CCRF-CEM.
Assay [12] has as its system RPMI-8226.
Assay [13] deals with A498.
Assay [14] concerns SNB-75.
Assay [15] has as its system SK-MEL-5.
In assay [16] the test system is U-251.
Assay [17] has as its system UACC-62.
In assay [18] the test system is HCT-116.
The subject of assay [19] is OVCAR-8.
The subject of assay [20] is OVCAR-4.

We go through ten molecules from ChEMBL document CHEMBL1201862, “PubChem BioAssay data set” (2004).

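Grown in 96-well plates, cells were treated for 48 hours with each compound at five concentrations. Insufficient inhibition: endpoint recorded as highest concentration tested. At the GI50, growth is halved.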 Active and inactive are the calls of the source. Rule as the data show it: active = GI50 up to about 1.1 µM and inactive = higher.

As to `COc1ccc([C@H]2CC(=O)C[C@H](c3ccc(OC)cc3)C23C(=O)c2ccccc2C3=O)cc1`, the GI50 is 1.95 µM (inactive) in assay [1]; 4.16 µM (inactive) in [2]; 6.34 µM (inactive) in assay [3]; 5.35 µM (inactive) in assay [4]; 17.3 µM (inactive) in assay [5]; 3.3 µM (inactive) in assay [6]. Moreover, the GI50 in assay [7] is 2.39 µM (inactive); in assay [8], 7.57 µM (inactive); in assay [9], 3.28 µM (inactive); in assay [10] it was 3.52 µM (inactive); in assay [11], 3.68 µM (inactive); in [12] it was 4.54 µM (inactive). The GI50 in [13] is > 100 µM (inactive); in [14], 2.9 µM (inactive); in assay [15], 3.46 µM (inactive); in [16], 4.24 µM (inactive); in [17], 4 µM (inactive); in assay [18], 4.46 µM (inactive). For the same molecule, the values for the GI50 in [19] and in assay [20] were 9.75 µM (inactive) and 9.57 µM (inactive), respectively.
As for `CCOC(=O)N1CC2(C)C=CC1C(C(=O)OC)C2` (stereo not given), the GI50 in assay [1], in assay [2], in assay [3], in assay [4], in [5] and in assay [6] was > 100 µM (inactive) each time. The GI50 in assay [7], in [8], in assay [9], in [10], in [11] and in assay [12] was > 100 µM (inactive) throughout. The GI50 in assay [13], in assay [14], in assay [15], in assay [16], in assay [17] and in assay [18] was > 100 µM (inactive) each time. Besides, the GI50 in assay [19] and in [20] was > 100 µM (inactive) in each case.
For `CC(=O)CC[N+](C)(C)C`, the GI50 in [1] is 37.8 µM (inactive); in assay [2] it was 14.1 µM (inactive); in assay [3] it was 23 µM (inactive); in [4], 22.7 µM (inactive); in assay [5], 42 µM (inactive); in assay [6] it was 36.4 µM (inactive). Besides, the GI50 in [7] was 21.3 µM (inactive); in assay [8] it was 27.7 µM (inactive); in assay [9], 7.85 µM (inactive); in assay [10], 3.21 µM (inactive); in [11] it was 5.24 µM (inactive); in assay [12], 5.94 µM (inactive). Also, the GI50 was 69.2 µM (inactive) in [13]; 29 µM (inactive) in [14]; 30.3 µM (inactive) in [15]; 34.6 µM (inactive) in assay [16]; 26.8 µM (inactive) in assay [17]; 25.2 µM (inactive) in assay [18]. In addition, the GI50 in [19] is 33.5 µM (inactive); in assay [20], 14.8 µM (inactive).
Regarding `O=C(NCCCNCCNC(=O)c1cc(-c2ccccc2)nc2ccccc12)c1cc(-c2ccccc2)nc2ccccc12`, the GI50 in assay [1] was 1.72 µM (inactive); in [2] it was 1.58 µM (inactive); in assay [3] it was 2.24 µM (inactive); in assay [4] it was 1.87 µM (inactive); in assay [5], 1.86 µM (inactive); in [6], 2.24 µM (inactive). Also, the GI50 in assay [7] is 1.86 µM (inactive); in assay [8], 1.72 µM (inactive); in assay [9], 2.75 µM (inactive); in [10], 1.94 µM (inactive); in assay [11] it was 0.783 µM (active); in [12], 3.25 µM (inactive). In addition, the GI50 is 2.29 µM (inactive) in assay [13]; 1.51 µM (inactive) in assay [14]; 1.64 µM (inactive) in assay [15]; 1.85 µM (inactive) in assay [16]; 2.22 µM (inactive) in [17]; 1.68 µM (inactive) in assay [18]. Moreover, the figures for the GI50 in assay [19] and in assay [20] were 1.77 µM (inactive) and 2.13 µM (inactive), respectively.
On to `CCOC(=O)c1c(Br)c(-c2ccc(OC)cc2)c(Br)n1C`, for which the GI50 was 2.37 µM (inactive) in [1]; 7.14 µM (inactive) in [2]; 26.4 µM (inactive) in [3]; 34.9 µM (inactive) in assay [4]; 12.2 µM (inactive) in assay [5]; 19.2 µM (inactive) in [6]. Moreover, the GI50 in assay [7] is 17 µM (inactive); in assay [8], 12.9 µM (inactive); in [9], 2.23 µM (inactive); in assay [10] it was 3.61 µM (inactive); in [11] it was 16.3 µM (inactive); in [12] it was 17.7 µM (inactive). For the same molecule, the GI50 is 14.6 µM (inactive) in [13]; 1.94 µM (inactive) in assay [14]; 10.6 µM (inactive) in [15]; 33.2 µM (inactive) in [16]; 5.09 µM (inactive) in [17]; 6.56 µM (inactive) in assay [18]. Besides, the figures for the GI50 in [19] and in assay [20] were 27.1 µM (inactive) and 47.1 µM (inactive), respectively.
Turning to `CCOC(=O)Cn1c(C(F)(F)F)nc2nc(Cl)c(Cl)nc21`, the GI50 is 32.5 µM (inactive) in assay [1]; 38.1 µM (inactive) in assay [2]; 41.3 µM (inactive) in assay [3]; 34.4 µM (inactive) in assay [4]; 3.44 µM (inactive) in assay [5]; 24.7 µM (inactive) in [6]. The GI50 is 58.9 µM (inactive) in assay [7]; 49.4 µM (inactive) in assay [8]; 24.2 µM (inactive) in [9]; 26.7 µM (inactive) in [10]; 20 µM (inactive) in [11]; 6.58 µM (inactive) in assay [12]. Moreover, the GI50 was 25.5 µM (inactive) in assay [13]; 55.2 µM (inactive) in [14]; 27.3 µM (inactive) in [15]; 33.5 µM (inactive) in assay [16]; 24.7 µM (inactive) in assay [17]; 38.9 µM (inactive) in assay [18]. Further, the GI50 was 38.5 µM (inactive) in assay [19] and 15.2 µM (inactive) in assay [20].
As to `CCC1([N+](=O)[O-])CC2C=CC1C2` (stereo not given), the GI50 in assay [1], in [2], in assay [3], in assay [4], in [5] and in [6] was > 100 µM (inactive) in each case. The GI50 in assay [7], in assay [8], in assay [9], in assay [10], in assay [11] and in [12] was > 100 µM (inactive) each time. Also, the GI50 in assay [13], in assay [14], in assay [15], in assay [16], in assay [17] and in assay [18] was > 100 µM (inactive) throughout. For the same molecule, the GI50 in assay [19] and in assay [20] was > 100 µM (inactive) throughout.
For the molecule `N#CC(c1ccccc1)N(CCc1ccccc1)C(=O)c1ccccc1` (stereo not given), the GI50 is > 100 µM (inactive) in [1]; > 100 µM (inactive) in assay [2]; > 100 µM (inactive) in assay [3]; 26.2 µM (inactive) in assay [4]; > 74.6 µM (inactive) in [5]; > 64.7 µM (inactive) in [6]. In addition, the GI50 in assay [7] was 47.8 µM (inactive); in [8] it was > 100 µM (inactive); in assay [9] it was > 100 µM (inactive); in assay [10], > 100 µM (inactive); in [11] it was > 100 µM (inactive); in assay [12] it was > 100 µM (inactive). The GI50 is > 100 µM (inactive) in [13]; 12.7 µM (inactive) in [14]; > 100 µM (inactive) in assay [15]; 52.4 µM (inactive) in assay [16]; 51.2 µM (inactive) in assay [17]; > 74.8 µM (inactive) in assay [18]. Further, the GI50 in [19] was 38.7 µM (inactive); in assay [20], 51.2 µM (inactive).
Turning to `CCOC(=O)c1cccc(/N=N/c2ncc(/C=C/C(=O)OC)[nH]2)c1`, the GI50 in assay [1] was 28 µM (inactive); in assay [2] it was 15.3 µM (inactive); in [3], 26 µM (inactive); in assay [4], 34.4 µM (inactive); in [5], 18 µM (inactive); in assay [6], 27.4 µM (inactive). The GI50 in assay [7] is 36.7 µM (inactive); in assay [8], 7.03 µM (inactive); in assay [9], 4.12 µM (inactive); in [10], 20.9 µM (inactive); in assay [11] it was 6 µM (inactive); in [12] it was 16.3 µM (inactive). Further, the GI50 in assay [13] is 20.8 µM (inactive); in assay [14] it was 26.4 µM (inactive); in assay [15], 10.8 µM (inactive); in [16], 22.6 µM (inactive); in assay [17] it was 21.5 µM (inactive); in assay [18], 18.2 µM (inactive). The GI50 is 17.3 µM (inactive) in assay [19] and 17.9 µM (inactive) in [20].
For the molecule `O=C(NCc1ccccc1)c1cc2ccccc2o/c1=N\c1ccccc1F`, the GI50 in assay [1] was 26.3 µM (inactive); in [2] it was 14.9 µM (inactive); in assay [3], 34.4 µM (inactive); in assay [4], 25.6 µM (inactive); in [5] it was 8.39 µM (inactive); in assay [6], 28.1 µM (inactive). In addition, the GI50 was 17.6 µM (inactive) in assay [7]; 28.9 µM (inactive) in assay [8]; 32.7 µM (inactive) in assay [9]; > 100 µM (inactive) in assay [10]; > 100 µM (inactive) in assay [11]; > 100 µM (inactive) in [12]. For the same molecule, the GI50 in [13] was 38.6 µM (inactive); in [14] it was 20 µM (inactive); in [15], 19.1 µM (inactive); in assay [16], 35.5 µM (inactive); in [17], 29.9 µM (inactive); in assay [18] it was 23.4 µM (inactive). The GI50 in assay [19] is 14.3 µM (inactive); in [20], 13.5 µM (inactive).
